Measurements as given in patent US7718652B2, “Substituted benzothiadiazinedioxide derivatives and methods of their use” (Wyeth LLC, priority 2006, dated 2010).
Structures can show the parent of a compound that is named as a salt.

The compounds below were run against T1, human hNET (Homo sapiens, UniProt P23975) (assay: Functional Norepinephrine (NE) Uptake Assay in MDCK-Net6 cells). Conditions: MDCK-Net6 cells stably transfected with human hNET; 3H norepinephrine 16 nM.
T1 construct: expressed in transfected cells; host or cells: MDCK-Net6 (MDCK cells stably transfected)
T1 sequence (P23975 whole entry): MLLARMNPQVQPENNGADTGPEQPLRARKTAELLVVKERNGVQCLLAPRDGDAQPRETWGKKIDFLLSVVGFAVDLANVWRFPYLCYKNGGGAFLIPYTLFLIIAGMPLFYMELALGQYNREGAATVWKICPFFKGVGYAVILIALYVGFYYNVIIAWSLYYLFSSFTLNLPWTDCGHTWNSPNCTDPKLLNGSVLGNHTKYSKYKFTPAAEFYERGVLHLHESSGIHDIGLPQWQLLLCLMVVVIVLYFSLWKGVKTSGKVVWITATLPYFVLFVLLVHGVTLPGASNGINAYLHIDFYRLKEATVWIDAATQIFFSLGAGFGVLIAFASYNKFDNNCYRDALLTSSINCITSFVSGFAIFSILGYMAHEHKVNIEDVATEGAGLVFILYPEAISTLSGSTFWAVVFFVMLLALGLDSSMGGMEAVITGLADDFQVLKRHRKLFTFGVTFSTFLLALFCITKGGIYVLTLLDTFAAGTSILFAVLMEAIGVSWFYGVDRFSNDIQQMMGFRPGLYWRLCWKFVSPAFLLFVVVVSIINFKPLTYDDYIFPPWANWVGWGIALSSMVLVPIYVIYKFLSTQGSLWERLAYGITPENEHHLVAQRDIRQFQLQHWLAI
Type: cell-based
Experimental: MDCK-Net6 cells, stably transfected with human hNET (Pacholczyk, T., R. D. Blakely, and S. G. Amara, Nature, 1991, 350(6316): p. 350-4) were cultured in growth medium containing high glucose DMEM (Gibco, Cat. No. 11995), 10% FBS (dialyzed, heat-inactivated, US Bio-Technologies, Lot FBD1129HI) and 500 μg/ml G418 (Gibco, Cat. No. 10131). Cells were plated at 300,000 T75 flask and cells were split twice weekly.
Functional Norepinephrine (NE) Uptake Assay
On day 1, cells were plated at 3,000 cells/well in growth medium and maintained in a cell incubator (37° C., 5% CO2). On day 2, growth medium was replaced with 200 μl of assay buffer (25 mM HEPES; 120 mM NaCl; 5 mM KCl; 2.5 mM CaCl2; 1.2 mM MgSO4; 2 mg/ml glucose (pH 7.4, 37° C.)) containing 0.2 mg/ml ascorbic acid and 1 μM pargyline. For screening, 25 μl of compound in 4% […] was added directly to each well and the plate is incubated for 5 minutes at 37° C.
To initiate the norepinephrine reuptake, 16 nM (final concentration) of ^3H norepinephrine (specific activity; 40-80 Ci/mmol) in assay buffer was delivered in 25 μl aliquots to each well, and the plates were incubated for 5 minutes at 37° C. The reaction was aspirated from the plate and the cells washed with 250 μl of 50 mM Tris Buffer (4° C.). The plates were left to dry for 1 hour. The cells were lysed using 0.25 M NaOH solution then placed on a shake table and vigorously shaken for 10 minutes. After cell lysis, 100 μl of Microscint 20 (PerkinElmer; #87-051101) were added to the plates and the plates were sealed with film tape and replaced on the shake table for a minimum of 10 minutes. The plates were counted in a TopCount counter (PerkinElmer).
For screening single point determinations, each compound plate contains at least 3 control wells (maximum NE reuptake determinant) and 3 non-specific wells determined by adding 20 μM of desipramine (minimum NE reuptake determinant). Determination of active compounds are calculated using a Microsoft Excel spread sheet applying the following formula: % inhibition=[1−((mean cpm test compound wells−mean cpm non-specific wells)/(mean cpm control wells−mean cpm non-specific wells))]×100
For IC50 determination, raw cpm values were generated in a data file from the TopCount counter. The data was organized in Microsoft Excel and transferred into PRIZM graphing and statistical program, which calculates the estimated IC50 value. Calculation of IC50 values were made using non-linear regression analysis with a sigmoidal dose response with variable slope. The statistical program used wells containing ^3H norepinephrine only as the maximal NE reuptake determinant and wells containing ^3H norepinephrine plus 20 μM desipramine as the minimal NE reuptake determinant (non-specific determinant). Estimation of the IC50 value was completed on a log scale and the line was fit between the maximal and minimal NE reuptake values.
In the case of `CNCCCN1Cc2ccccc2N(c2ccccc2)S1(=O)=O` [Example 1, 3-(2,2-dioxido-1-phenyl-1,4-dihydro-3H-2,1,3-benzothiadiazin-3-yl)-N-methylpropan-1-amine hydrochloride], the IC50 is reported as 129 nM.
`CNCCCN1Cc2ccccc2N(c2cccc(F)c2)S1(=O)=O` [Example 2, 3-[1-(3-fluorophenyl)-2,2-dioxido-1,4-dihydro-3H-2,1,3-benzothiadiazin-3-yl]-N-methylpropan-1-amine hydrochloride] showed an IC50 of 628 nM.
With `CNCCCN1Cc2ccccc2N(c2cccc(C)c2)S1(=O)=O` [Example 3, N-methyl-3-[1-(3-methylphenyl)-2,2-dioxido-1,4-dihydro-3H-2,1,3-benzothiadiazin-3-yl]propan-1-amine hydrochloride] the IC50 was 1030 nM.
`CNCCCN1Cc2ccccc2N(c2cccc(OC)c2)S1(=O)=O` [Example 4, 3-[1-(3-methoxyphenyl)-2,2-dioxido-1,4-dihydro-3H-2,1,3-benzothiadiazin-3-yl]-N-methylpropan-1-amine hydrochloride] showed an IC50 of 792 nM.
`CNCCCN1Cc2ccccc2N(c2ccc(Cl)cc2)S1(=O)=O` [Example 5, 3-[1-(4-chlorophenyl)-2,2-dioxido-1,4-dihydro-3H-2,1,3-benzothiadiazin-3-yl]-N-methylpropan-1-amine hydrochloride] gave an IC50 of 908 nM.
Work on `CNCCCN1Cc2ccccc2N(c2ccc(F)c(Cl)c2)S1(=O)=O` [Example 6, 3-[1-(3-chloro-4-fluorophenyl)-2,2-dioxido-1,4-dihydro-3H-2,1,3-benzothiadiazin-3-yl]-N-methylpropan-1-amine hydrochloride] yielded an IC50 of 1500 nM.
Compound `CNCCCN1Cc2ccccc2N(c2ccc(F)cc2)S1(=O)=O` [Example 7, 3-[1-(4-fluorophenyl)-2,2-dioxido-1,4-dihydro-3H-2,1,3-benzothiadiazin-3-yl]-N-methylpropan-1-amine hydrochloride] has an IC50 of 492 nM.
`CNCCCN1Cc2ccccc2N(c2ccc(C)cc2)S1(=O)=O` [Example 8, N-methyl-3-[1-(4-methylphenyl)-2,2-dioxido-1,4-dihydro-3H-2,1,3-benzothiadiazin-3-yl]propan-1-amine hydrochloride] was tested, and the IC50 was 135 nM.
In the case of `CNCCCN1Cc2ccccc2N(c2ccc(OC)cc2)S1(=O)=O` [Example 9, 3-[1-(4-methoxyphenyl)-2,2-dioxido-1,4-dihydro-3H-2,1,3-benzothiadiazin-3-yl]-N-methylpropan-1-amine hydrochloride], the IC50 is reported as 3550 nM.
With `CNCCCN1Cc2ccccc2N(c2ccc(F)c(F)c2)S1(=O)=O` [Example 10, 3-[1-(3,4-difluorophenyl)-2,2-dioxido-1,4-dihydro-3H-2,1,3-benzothiadiazin-3-yl]-N-methylpropan-1-amine hydrochloride] the IC50 was 973 nM.
In the case of `CNCCN1Cc2ccccc2N(c2ccccc2F)S1(=O)=O` [Example 11, 2-[1-(2-fluorophenyl)-2,2-dioxido-1,4-dihydro-3H-2,1,3-benzothiadiazin-3-yl]-N-methylethanamine], the IC50 is reported as 200 nM.
Work on `O=S1(=O)N(CCNC2CC2)Cc2ccccc2N1c1ccccc1F` [Example 12, N-{2-[1-(2-fluorophenyl)-2,2-dioxido-1,4-dihydro-3H-2,1,3-benzothiadiazin-3-yl]ethyl}cyclopropanamine] yielded an IC50 of 2380 nM.
For `CNCCCN1Cc2ccccc2N(c2ccccc2F)S1(=O)=O` [Example 13, 3-[1-(2-fluorophenyl)-2,2-dioxido-1,4-dihydro-3H-2,1,3-benzothiadiazin-3-yl]-N-methylpropan-1-amine], the IC50 was 29 nM.
`O=S1(=O)N(CCCNC2CC2)Cc2ccccc2N1c1ccccc1F` [Example 14, N-{3-[1-(2-fluorophenyl)-2,2-dioxido-1,4-dihydro-3H-2,1,3-benzothiadiazin-3-yl]propyl}cyclopropanamine] gave an IC50 of 956 nM.
Compound `CNCCCCN1Cc2ccccc2N(c2ccccc2F)S1(=O)=O` [Example 15, 4-[1-(2-fluorophenyl)-2,2-dioxido-1,4-dihydro-3H-2,1,3-benzothiadiazin-3-yl]-N-methylbutan-1-amine] has an IC50 of 38 nM.
`O=S1(=O)N(CCCCNC2CC2)Cc2ccccc2N1c1ccccc1F` [Example 16, N-{4-[1-(2-fluorophenyl)-2,2-dioxido-1,4-dihydro-3H-2,1,3-benzothiadiazin-3-yl]butyl}cyclopropanamine] gave an IC50 of 139 nM.
Work on `CNCCN1Cc2cc(F)ccc2N(c2ccccc2F)S1(=O)=O` [Example 17, 2-[6-fluoro-1-(2-fluorophenyl)-2,2-dioxido-1,4-dihydro-3H-2,1,3-benzothiadiazin-3-yl]-N-methylethanamine] yielded an IC50 of 1410 nM.
`O=S1(=O)N(CCNC2CC2)Cc2cc(F)ccc2N1c1ccccc1F` [Example 18, N-{2-[6-fluoro-1-(2-fluorophenyl)-2,2-dioxido-1,4-dihydro-3H-2,1,3-benzothiadiazin-3-yl]ethyl}cyclopropanamine] showed an IC50 of 2870 nM.
`CNCCCN1Cc2cc(F)ccc2N(c2ccccc2F)S1(=O)=O` [Example 19, 3-[6-fluoro-1-(2-fluorophenyl)-2,2-dioxido-1,4-dihydro-3H-2,1,3-benzothiadiazin-3-yl]-N-methylpropan-1-amine] showed an IC50 of 119 nM.
In the case of `O=S1(=O)N(CCCNC2CC2)Cc2cc(F)ccc2N1c1ccccc1F` [Example 20, N-{3-[6-fluoro-1-(2-fluorophenyl)-2,2-dioxido-1,4-dihydro-3H-2,1,3-benzothiadiazin-3-yl]propyl}cyclopropanamine], the IC50 is reported as 1750 nM.
`CNCCCCN1Cc2cc(F)ccc2N(c2ccccc2F)S1(=O)=O` [Example 21, 4-[6-fluoro-1-(2-fluorophenyl)-2,2-dioxido-1,4-dihydro-3H-2,1,3-benzothiadiazin-3-yl]-N-methylbutan-1-amine] showed an IC50 of 30 nM.
Work on `O=S1(=O)N(CCCCNC2CC2)Cc2cc(F)ccc2N1c1ccccc1F` [Example 22, N-{4-[6-fluoro-1-(2-fluorophenyl)-2,2-dioxido-1,4-dihydro-3H-2,1,3-benzothiadiazin-3-yl]butyl}cyclopropanamine] yielded an IC50 of 177 nM.
In the case of `CNC[C@@H](O)CCN1Cc2cc(F)ccc2N(c2ccccc2F)S1(=O)=O` [Example 23, (2S)-4-[6-fluoro-1-(2-fluorophenyl)-2,2-dioxido-1,4-dihydro-3H-2,1,3-benzothiadiazin-3-yl]-1-(methylamino)butan-2-ol], the IC50 is reported as 81 nM.
`CNC[C@@H](O)CCN1Cc2ccccc2N(c2ccccc2F)S1(=O)=O` [Example 24, (2S)-4-[1-(2-fluorophenyl)-2,2-dioxido-1,4-dihydro-3H-2,1,3-benzothiadiazin-3-yl]-1-(methylamino)butan-2-ol] showed an IC50 of 95 nM.

Same assay, conditions: at 10 uM; MDCK-Net6 cells; printed in the IC50 column where 50% inhibition was not exceeded; read-out: hNET Uptake, % inhibition at highest concentration tested
In the case of `CNCCCN1c2ccccc2CN(c2ccccc2F)S1(=O)=O` [Example 25, 3-[3-(2-fluorophenyl)-2,2-dioxido-3,4-dihydro-1H-2,1,3-benzothiadiazin-1-yl]-N-methylpropan-1-amine], the inhibition at 10 µM is reported as 47%.
`CNCCN1c2ccccc2CN(c2ccccc2F)S1(=O)=O` [Example 26, 2-[3-(2-fluorophenyl)-2,2-dioxido-3,4-dihydro-1H-2,1,3-benzothiadiazin-1-yl]-N-methylethanamine] was tested, and the inhibition at 10 µM was 36%.
